Earlier results on two compounds are cited in patent US8333997B2, “Compositions for sustained release of nitric oxide, methods of preparing same and uses thereof” (priority 2006, dated 2012).

In one data set the test system is S. aureus. The settings on record: dose-response study on S. aureus.
Data set [1] has as its system Methicillin sensitive and Methicillin resistant species. To be noted: against Methicillin sensitive and Methicillin resistant species.

`[N]=O` [NO, nitric oxide]: in the data set with S. aureus, the “concentration at which NO exhibits potent antimicrobial properties” value was “above 160 ppm”. As for `C/C(=C\C(=O)OCCCCCCCCC(=O)O)C[C@@H]1OC[C@H](C[C@@H]2O[C@H]2[C@@H](C)[C@H](C)O)[C@@H](O)[C@H]1O` [Mupirocin], the efficacious concentration ranges in data set [1] is 25 to 256 mg/L.
